Here are results for four compounds from PMC8147254, “Efflux at the Blood-Brain Barrier Reduces the Cerebral Exposure to Ochratoxin A, Ochratoxin α, Citrinin and Dihydrocitrinone” (Toxins, 2021).

Like-named read-outs stand apart in the source and are kept apart here.

The test system of data set [1] is PBCEC. The data set is classed as cell-based, porcine. Particulars: 1 µM apical, 48 h, referred to t = 0 h, n = 9 (negative control 88 ± 4%). On the procedure:
In order to study the barrier integrity PBCEC were incubated with 1 µM OTA, OTα, CIT and DHCIT in the apical compartment (blood side) of Transwell® filter inserts for 48 h. The TEER values as well as the electrical capacitance (cCL) were monitored by cellular impedance spectroscopy (Figure 4A,B). As a negative control the permeability of […] was measured after 48 h. Sucrose is not transported by any cellular transport protein and represents a marker for an intact BBB.
For barrier integrity, TEER values were monitored using a cellZscope® cellular impedance spectrometer (nanoAnalytics, Münster, Germany). […]. The detailed protocols can be found in the Supplementary Materials. […]
6.1. Cellular impedance spectroscopy
To monitor the barrier integrity during all transfer studies, the transendothelial electrical resistance (TEER) was measured with a cellZscope® cellular impedance spectrometer (nanoAnalytics, Münster, Germany) using a module suitable for 24 Transwell® filter inserts. After the mycotoxins were added to the cell culture medium, TEER was analyzed until the end of the experiment (48 h). The waiting time after each run was set to 10 min, resulting in 60 scans per 48 h.
The results were normalized to the TEER values of the first impedance spectrum of each well. Data processing was performed using the cellZscope 1.3.4 software (nanoAnalytics, Münster, Germany).

For data set [2], the system named is PBCEC monolayer. The class given is in vitro ADME, porcine. As to conditions: 200 nM in both compartments; for effect of probenecid on the enrichment in the apical compartment: 100 µM probenecid; for concentration in the apical compartment after 48 h / concentration in the basolateral compartment after 48 h: n = 3; for mycotoxin amounts extracted from the cells and filter membranes, of the initially applied amount: data not shown. How it is done:
To analyse any active transport the mycotoxins were applied in the apical and basolateral compartments in equimolar concentrations of 200 nM. In a second set of experiments, 100 µM probenecid were added to both compartments 1 h before mycotoxin incubation in order to elucidate the effects of the OAT transport proteins. […] The mycotoxin concentrations were analysed as described above by HPLC-MS/MS.
For active transport studies, the cells were treated as described for transfer studies, with the only difference being that the compounds were applied on the apical and basolateral side in equimolar 200 nM concentrations (see Supplementary Materials). To investigate whether probenecid has an effect on the active transfer of the mycotoxins via OAT, 100 µM probenecid was applied to the apical and basolateral compartment 1 h before mycotoxin application and maintained until the end of the experiment.
Afterwards, the column was re-equilibrated for 4 min. An injection volume of 5 µL was used.
5. Active transport studies
To study the active transfer properties, the cells were treated in the same manner as for the normal transfer studies, but the mycotoxins were incubated on the apical and basolateral side in equimolar 200 nM concentrations as previously described. To investigate whether probenecid has an effect on the active transfer of the mycotoxins via OAT, 100 μM probenecid was applied to the apical and basolateral compartment 1 h before mycotoxin application and maintained until the end […]
after applying the mycotoxins using HPLC‐MS/MS. […]

Data set [3] deals with PBCEC. Particulars: for cytotoxic or barrier-weakening (adverse) effects / effect on cellular viability: up to 10 µM.
Data set [4] can be described thus: in vitro. As to conditions: pig.
For data set [5] the following is noted: 13 German volunteers; cited from earlier work.
For data set [6] the following is noted: 50 German volunteers, dried blood spot; cited from earlier work.
The conditions of data set [7]: 289 µg OTA/kg body weight/48 h for up to 6 weeks; cited from earlier work.
Where [8] appears, read: 100 µM probenecid from 1 h before.
Where [9] appears, read: cellular viability (dehydrogenase activity) compared to the negative control, 1 µM, 48 h, CCK-8, n = 18.
[10] abbreviates: cellular viability (dehydrogenase activity) compared to the negative control, 10 µM, 48 h, CCK-8, n = 18.

For the compound `CC1=C2C(=CO[C@H](C)[C@H]2C)C(O)=C(C(=O)O)C1=O` [CIT, Citrinin], the “relative TEER value after 48 h” value in data set [1] is listed as 81 ± 10%. In data set [2], the “effect of probenecid on the enrichment in the apical compartment” value (from here on “effect of probenecid on the enrichment”) is listed as “some effect of probenecid cannot be dismissed”; the “mycotoxin amounts extracted from the cells and filter membranes, of the initially applied amount” value (shortened to “mycotoxin amounts extracted”) is recorded as “below 1%”. In data set [2] (setting [8]), the “concentration in the apical compartment after 48 h” value was 205 ± 21 nM and the “concentration in the basolateral compartment after 48 h” value came out at 180 ± 12 nM. Besides, in data set [2] (without probenecid), the “concentration in the apical compartment after 48 h” value was 266 ± 18 nM and the “concentration in the basolateral compartment after 48 h” value turned out to be 182 ± 1 nM. Besides, the “cytotoxic or barrier-weakening (adverse) effects” value (“cytotoxic or barrier-weakening” for short) in data set [3] was “no adverse effects”. Also, in data set [3] (48 h), the “effect on cellular viability” value is listed as “neither altered the cellular viability”. Further, in data set [4], the viability at 1 µM was found to be 106 ± 13% and the viability at 10 µM came out at 134 ± 13%.
Take `C[C@@H]1Cc2c(Cl)cc(C(=O)N[C@@H](Cc3ccccc3)C(=O)O)c(O)c2C(=O)O1` [OTA, Ochratoxin A]: the “relative TEER value after 48 h” value in data set [1] is 62 ± 10%. For the same compound, in data set [2], the “effect of probenecid on the enrichment” value is on record as “minor almost negligible effect”; the “mycotoxin amounts extracted” value is “below 1%”. In data set [2] (setting [8]), the “concentration in the apical compartment after 48 h” value amounted to 292 ± 28 nM and the “concentration in the basolateral compartment after 48 h” value came out at 224 ± 6 nM. Moreover, in data set [2] (without probenecid), the “concentration in the apical compartment after 48 h” value is on record as 275 ± 32 nM and the “concentration in the basolateral compartment after 48 h” value amounted to 206 ± 4 nM. Moreover, the “dehydrogenase activity compared to the negative control” value in data set [3] (10 nM, 48 h, CCK-8, n = 18) is reported as 112 ± 12%. Moreover, in data set [4] (setting [9]), the viability at 1 µM worked out at 92 ± 23%. Moreover, the viability at 10 µM in data set [4] (setting [10]) turned out to be 3 ± 4%. The “mean OTA concentration in blood plasma” value in data set [5] is 0.25 ± 0.03 ng/mL. Further, in data set [6], the “mean whole blood concentration of OTA” value is listed as 0.21 ± 0.066 ng/mL. In data set [7], the “concentration in brain tissue” value is “up to 94 ± 16 ng/g”.
With `C[C@@H]1Cc2c(Cl)cc(C(=O)O)c(O)c2C(=O)O1` [OTα, ochratoxin α], in data set [1], the “relative TEER value after 48 h” value amounted to 92 ± 16%. In addition, in data set [2], the “effect of probenecid on the enrichment” value is “weak”; the “mycotoxin amounts extracted” value was “below 1%”. Also, in data set [2] (setting [8]), the “concentration in the apical compartment after 48 h” value is reported as 236 ± 16 nM and the “concentration in the basolateral compartment after 48 h” value is reported as 187 ± 1 nM. Also, in data set [2] (without probenecid), the “concentration in the apical compartment after 48 h” value worked out at 268 ± 10 nM and the “concentration in the basolateral compartment after 48 h” value stood at 194 ± 5 nM. The “cytotoxic or barrier-weakening” value in data set [3] is “no adverse effects”. Moreover, in data set [3] (48 h), the “effect on cellular viability” value was “neither altered the cellular viability”. Besides, the viability at 1 µM in data set [4] (setting [9]) came to 119 ± 18%. Further, the viability at 10 µM in data set [4] (setting [10]) worked out at 100 ± 14%. Also, the “mean total OTα level in blood plasma” value in data set [5] is recorded as 2.99 ± 2.24 ng/mL.
Take `Cc1c(O)c(C(=O)O)c(O)c2c1[C@H](C)[C@@H](C)OC2=O` [DHCIT, dihydrocitrinone]: the “relative TEER value after 48 h” value in data set [1] was determined as 79 ± 9%. Further, in data set [2] (setting [8]), the “concentration in the apical compartment after 48 h” value amounted to 250 ± 15 nM and the “concentration in the basolateral compartment after 48 h” value is reported as 178 ± 15 nM. Further, in data set [2] (without probenecid), the “concentration in the apical compartment after 48 h” value is reported as 278 ± 7 nM and the “concentration in the basolateral compartment after 48 h” value worked out at 186 ± 6 nM. Moreover, the “mycotoxin amounts extracted” value in data set [2] is on record as “below 1%”. Moreover, the “cytotoxic or barrier-weakening” value in data set [3] was “no adverse effects”. Besides, the “effect on cellular viability” value in data set [3] (48 h) is reported as “neither altered the cellular viability”. Besides, in data set [4], the viability at 1 µM was determined as 96 ± 11% and the viability at 10 µM worked out at 87 ± 9%.

One may read the viability as a read-out of living cells in per cent, often relative to untreated cells.
